Assay results reported in ChEMBL document CHEMBL5390204, “Persephacin Is a Broad-Spectrum Antifungal Aureobasidin Metabolite That Overcomes Intrinsic Resistance in Aspergillus fumigatus” (J Nat Prod, 2023).
Values after ≈ are worked out from the molar mass of the structure shown.

Experiments:
Type in all cases: functional
[1] = test system: Candida albicans; assay: Antifungal activity against Candida albicans 21 assessed as inhibition in fungal growth incubated for 48 hrs by microplate reader analysis
[2] = test system: Cryptococcus neoformans; assay: Antifungal activity against Cryptococcus neoformans H99 assessed as reduction in fungal growth incubated for 48 hrs by microplate reader analysis
[3] = test system: Candida albicans; assay: Antifungal activity against Candida albicans SC5314 assessed as reduction in fungal viability incubated for 48 hrs by microplate reader analysis
[4] = test system: Aspergillus fumigatus; assay: Antifungal activity against Aspergillus fumigatus NRRL6113 assessed as reduction in fungal growth incubated for 48 hrs by microplate reader analysis
[5] = test system: Paecilomyces lilacinus; assay: Antifungal activity against Paecilomyces lilacinus 165E10 assessed as reduction in fungal growth incubated for 48 hrs by microplate reader analysis; conditions: Purpureocillium lilacinum
[6] = test system: Candida albicans; assay: Antifungal activity against Candida albicans ATCC 10231 assessed as reduction in fungal growth incubated for 48 hrs by microplate reader analysis
[7] = test system: Candida parapsilosis; assay: Antifungal activity against Candida parapsilosis 9 assessed as inhibition in fungal growth incubated for 48 hrs by microplate reader analysis; conditions: Lodderomyces parapsilosis
[8] = test system: Nakaseomyces glabratus; assay: Antifungal activity against Candida glabrata 11 assessed as inhibition in fungal growth incubated for 48 hrs by microplate reader analysis
[9] = test system: Pichia kudriavzevii; assay: Antifungal activity against Candida krusei ATCC 6258 (Y-7179) assessed as reduction in fungal viability incubated for 48 hrs by microplate reader analysis
[10] = test system: Nakaseomyces glabratus; assay: Antifungal activity against Candida glabrata 20 assessed as inhibition in fungal growth incubated for 48 hrs by microplate reader analysis
[11] = test system: Candida albicans; assay: Antifungal activity against Candida albicans SC5314 assessed as reduction in fungal growth incubated for 48 hrs by microplate reader analysis
[12] = test system: Candida albicans; assay: Antifungal activity against Candida albicans SC5314 assessed as inhibition in fungal growth incubated for 48 hrs in presence of 0% serum by microplate reader analysis
[13] = test system: Cryptococcus neoformans; assay: Antifungal activity against Cryptococcus neoformans H99 assessed as inhibition in fungal growth incubated for 48 hrs in presence of 10% serum by microplate reader analysis
[14] = test system: Candida parapsilosis; assay: Antifungal activity against Candida parapsilosis ATCC 22019 (Y-12969) assessed as reduction in fungal viability incubated for 48 hrs by microplate reader analysis
[15] = test system: Candida albicans; assay: Antifungal activity against Candida albicans 8 assessed as inhibition in fungal growth incubated for 48 hrs by microplate reader analysis
[16] = test system: Candida duobushaemulonii; assay: Antifungal activity against multidrug-resistant Candida duobushaemulonii 391 assessed as inhibition in fungal growth incubated for 48 hrs by microplate reader analysis; conditions: Candidozyma duobushaemuli
[17] = test system: [Candida] auris; assay: Antifungal activity against multidrug-resistant Candida auris 381 assessed as inhibition in fungal growth incubated for 48 hrs in presence of 10% serum by microplate reader analysis; conditions: Candidozyma auris
[18] = test system: Hamigera insecticola; assay: Antifungal activity against Hamigera insecticola NRRL35442 assessed as reduction in fungal viability incubated for 48 hrs by microplate reader analysis
[19] = test system: Nakaseomyces glabratus; assay: Antifungal activity against Candida glabrata 4 assessed as inhibition in fungal growth incubated for 48 hrs by microplate reader analysis
[20] = test system: Aspergillus fumigatus; assay: Antifungal activity against Aspergillus fumigatus ATCC MYA-3627 assessed as inhibition in fungal growth incubated for 48 hrs in presence of 0% serum by microplate reader analysis
[21] = test system: [Candida] auris; assay: Antifungal activity against multidrug-resistant Candida auris 382 assessed as inhibition in fungal growth incubated for 48 hrs by microplate reader analysis; conditions: Candidozyma auris
[22] = test system: Fusarium solani; assay: Antifungal activity against Fusarium solani 243G2 assessed as reduction in fungal viability incubated for 48 hrs by microplate reader analysis
[23] = test system: Kluyveromyces marxianus; assay: Antifungal activity against Candida kefyr 12 assessed as inhibition in fungal growth incubated for 48 hrs by microplate reader analysis
[24] = test system: [Candida] haemuloni; assay: Antifungal activity against multidrug-resistant Candida haemulonii 393 assessed as inhibition in fungal growth incubated for 48 hrs by microplate reader analysis; conditions: Candidozyma haemuli
[25] = test system: Candida duobushaemulonii; assay: Antifungal activity against multidrug-resistant Candida duobushaemulonii 394 assessed as inhibition in fungal growth incubated for 48 hrs by microplate reader analysis; conditions: Candidozyma duobushaemuli
[26] = test system: Aspergillus niger; assay: Antifungal activity against Aspergillus niger FGSC A732 assessed as reduction in fungal growth incubated for 48 hrs by microplate reader analysis
[27] = test system: Pichia kudriavzevii; assay: Antifungal activity against multidrug-resistant Candida krusei 397 assessed as inhibition in fungal growth incubated for 48 hrs by microplate reader analysis
[28] = test system: Fusarium solani; assay: Antifungal activity against Fusarium solani 243G2 assessed as reduction in fungal growth incubated for 48 hrs by microplate reader analysis
[29] = test system: Candida duobushaemulonii; assay: Antifungal activity against multidrug-resistant Candida duobushaemulonii 392 assessed as inhibition in fungal growth incubated for 48 hrs by microplate reader analysis; conditions: Candidozyma duobushaemuli
[30] = test system: Aspergillus niger; assay: Antifungal activity against Aspergillus niger FGSC A732 assessed as reduction in fungal viability incubated for 48 hrs by microplate reader analysis
[31] = test system: [Candida] auris; assay: Antifungal activity against multidrug-resistant Candida auris 386 assessed as inhibition in fungal growth incubated for 48 hrs by microplate reader analysis; conditions: Candidozyma auris
[32] = test system: Curvularia lunata; assay: Antifungal activity against Curvularia lunata NRRL6409 assessed as reduction in fungal growth incubated for 48 hrs by microplate reader analysis
[33] = test system: Candida tropicalis; assay: Antifungal activity against Candida tropicalis 13 assessed as inhibition in fungal growth incubated for 48 hrs by microplate reader analysis
[34] = test system: Candida albicans; assay: Antifungal activity against Candida albicans 14 assessed as inhibition in fungal growth incubated for 48 hrs by microplate reader analysis
[35] = test system: [Candida] auris; assay: Antifungal activity against multidrug-resistant Candida auris 389 assessed as inhibition in fungal growth incubated for 48 hrs by microplate reader analysis; conditions: Candidozyma auris
[36] = test system: Candida albicans; assay: Antifungal activity against Candida albicans ATCC 10231 assessed as reduction in fungal viability incubated for 48 hrs by microplate reader analysis
[37] = test system: Candida parapsilosis; assay: Antifungal activity against Candida parapsilosis 7 assessed as inhibition in fungal growth incubated for 48 hrs by microplate reader analysis; conditions: Lodderomyces parapsilosis
[38] = test system: Candida albicans; assay: Antifungal activity against Candida albicans 10 assessed as inhibition in fungal growth incubated for 48 hrs by microplate reader analysis
[39] = test system: Candida tropicalis; assay: Antifungal activity against Candida tropicalis ATCC750 (Y-12699) assessed as reduction in fungal growth incubated for 48 hrs by microplate reader analysis
[40] = test system: Rhizopus arrhizus; assay: Antifungal activity against Rhizopus oryzae FGSC 9543 assessed as reduction in fungal viability incubated for 48 hrs by microplate reader analysis
[41] = test system: [Candida] auris; assay: Antifungal activity against multidrug-resistant Candida auris 388 assessed as inhibition in fungal growth incubated for 48 hrs by microplate reader analysis; conditions: Candidozyma auris
[42] = test system: [Candida] auris; assay: Antifungal activity against multidrug-resistant Candida auris 381 assessed as inhibition in fungal growth incubated for 48 hrs in presence of 5% serum by microplate reader analysis; conditions: Candidozyma auris
[43] = test system: [Candida] auris; assay: Antifungal activity against multidrug-resistant Candida auris 390 assessed as inhibition in fungal growth incubated for 48 hrs by microplate reader analysis; conditions: Candidozyma auris
[44] = test system: Nakaseomyces glabratus; assay: Antifungal activity against Candida glabrata 16 assessed as inhibition in fungal growth incubated for 48 hrs by microplate reader analysis

Compound `C[C@@H]1[C@H](O)[C@@H](C)/C=C/C=C/C=C/C=C/C=C/C=C/C=C/[C@H](O[C@@H]2O[C@H](C)[C@@H](O)[C@H](N)[C@@H]2O)C[C@@H]2O[C@](O)(C[C@@H](O)C[C@@H](O)[C@H](O)CC[C@@H](O)C[C@@H](O)CC(=O)O[C@H]1C)C[C@H](O)[C@H]2C(=O)O` [AMPHOTERICIN B] has an MIC80 [1] of 0.6 µM (≈ 0.554 µg/mL), an MFC [2] of 2.5 µM (≈ 2.31 µg/mL) and an MIC80 [2] of 1.3 µM (≈ 1.2 µg/mL). The “MFC<=99.9” value [3] was 2.5 µM (≈ 2.31 µg/mL), the MFC [4] was 10 µM (≈ 9.24 µg/mL) and the MIC80 [4] was 2.5 µM (≈ 2.31 µg/mL). The MFC [5] was > 10 µM, the MIC80 [5] was > 10 µM and the MFC [6] was 2.5 µM (≈ 2.31 µg/mL). The MIC80 [6] was 0.6 µM (≈ 0.554 µg/mL), the MIC80 [7] was 2.5 µM (≈ 2.31 µg/mL) and the MIC80 [8] was 0.3 µM (≈ 0.277 µg/mL). The “MFC<=99.9” value [9] was 5 µM (≈ 4.62 µg/mL), the MIC80 [10] was 0.6 µM (≈ 0.554 µg/mL) and the MFC [11] was 2.5 µM (≈ 2.31 µg/mL). For the same compound, the MIC80 [11] was 0.6 µM (≈ 0.554 µg/mL), the MIC80 [12] was 0.6 µM and the MIC80 [13] was < 0.2 µM. For the same compound, the “MFC<=99.9” value [14] was 5 µM (≈ 4.62 µg/mL), the MIC80 [15] was 0.6 µM (≈ 0.554 µg/mL) and the MIC80 [16] was 5 µM (≈ 4.62 µg/mL). The MIC80 [17] was 0.3 µM, the “MFC<=99.9” value [18] was 10 µM (≈ 9.24 µg/mL) and the MIC80 [19] was 1.3 µM (≈ 1.2 µg/mL). For the same compound, the MIC80 [20] was 2.5 µM, the MIC80 [21] was 1.3 µM (≈ 1.2 µg/mL) and the “MFC<=99.9” value [22] was 1.3 µM (≈ 1.2 µg/mL). It also gave an MIC80 [23] of 0.3 µM (≈ 0.277 µg/mL), an MIC80 [24] of 5 µM (≈ 4.62 µg/mL) and an MIC80 [25] of 5 µM (≈ 4.62 µg/mL). It also gave an MFC [26] of 2.5 µM (≈ 2.31 µg/mL), an MIC80 [26] of 0.6 µM (≈ 0.554 µg/mL) and an MIC80 [27] of 2.5 µM (≈ 2.31 µg/mL). For the same compound, the MFC [28] was 1.3 µM (≈ 1.2 µg/mL), the MIC80 [28] was 1.3 µM (≈ 1.2 µg/mL) and the MIC80 [29] was 5 µM (≈ 4.62 µg/mL). For the same compound, the “MFC<=99.9” value [30] was 2.5 µM (≈ 2.31 µg/mL), the MIC80 [31] was 2.5 µM (≈ 2.31 µg/mL) and the MFC [32] was 2.5 µM (≈ 2.31 µg/mL). It also gave an MIC80 [32] of 0.3 µM (≈ 0.277 µg/mL), an MIC80 [33] of 0.2 µM (≈ 0.185 µg/mL) and an MIC80 [34] of 1.3 µM (≈ 1.2 µg/mL). The MIC80 [35] was 5 µM (≈ 4.62 µg/mL), the “MFC<=99.9” value [36] was 2.5 µM (≈ 2.31 µg/mL) and the MIC80 [37] was 2.5 µM (≈ 2.31 µg/mL). It also gave an MIC80 [38] of 0.6 µM (≈ 0.554 µg/mL), an MFC [39] of 2.5 µM (≈ 2.31 µg/mL) and an MIC80 [39] of 1.3 µM (≈ 1.2 µg/mL). The “MFC<=99.9” value [40] was 0.3 µM (≈ 0.277 µg/mL), the MIC80 [41] was 2.5 µM (≈ 2.31 µg/mL) and the MIC80 [42] was < 0.2 µM. The MIC80 [43] was 2.5 µM (≈ 2.31 µg/mL) and the MIC80 [44] was 0.2 µM (≈ 0.185 µg/mL).
